Reference: US20130065756A1, “SPIROHETEROCYCLIC DIONE DERIVATIVES USED AS PESTICIDES” (SYNGENTA CROP PROTECTION LLC, priority 2009, published 2013)
Read-outs that look alike come from different tables or passages of the source.

Experiments:
[1] = tested on: Myzus persicae (green peach aphid); experiment: Example B9: Myzus persicae on pepper or cabbage plants, feeding/residual contact activity; assay type: in vivo; conditions: 144 h, 6 days, read-out: activity against Myzus persicae (mortality)
pepper plants = conditions: in vivo, 6 days, 200 ppm
Procedure: (§1) (Mixed Population, Feeding/Residual Contact Activity, Plant Damage Evaluation)
(§2) Pepper [P] or cabbage […] plants infested with a mixed population of Myzus persicae are treated with diluted test solutions of the compounds in a spray chamber. 6 days after treatment, samples are checked for mortality and for plant damage (phytotoxicity), visual assessment being made using a 0-100% rating scale (100%=total damage to plant; 0%=no damage to plant).

[2] = tested on: Myzus persicae (green peach aphid); experiment: Example B8: drench activity against Myzus persicae; conditions: soil, 168 h, read-out: activity (mortality), drench
[3] = tested on: Nilaparvata lugens (brown rice planthopper); experiment: Example B6: Nilaparvata lugens, larvicide, feeding/contact; conditions: in Oryza sativa, read-out: activity (mortality, growth regulation, effects on F1 generation)
[4] = tested on: Aphis Craccivora (cowpea aphid); experiment: Example B7: translaminar activity against Aphis craccivora; assay type: in vivo; conditions: 120 h, upper side of French bean leaves painted, 5 days
Procedure: Translaminar Activity Against Aphis Craccivora (Cowpea Aphid)
French bean leaves (Phaseolus vulgaris) are infested with about 20 mixed age individuals on the lower leaf side using clip cages. 1 day after the infestation, the upper side of the leaves is treated with the test solution by painting. 5 days later, samples are checked for mortality.

[5] = tested on: Tetranychus urticae (two-spotted spider mite); experiment: Example B4: Tetranychus urticae, mixed population, feeding/residual contact activity, preventive; conditions: foliar, 192 h, read-out: activity (egg, larval and adult mortality)
[6] = tested on: Myzus persicae (green peach aphid); experiment: Example B2: Myzus persicae, mixed population, systemic/feeding activity, curative; conditions: 144 h, read-out: activity (mortality)
[7] = tested on: Thrips tabaci (onion thrips); experiment: Example B3: Thrips tabaci, mixed population, feeding/residual contact activity, preventive; conditions: foliar, 144 h, read-out: activity (mortality)
cabbage plants = conditions: in vivo, 6 days, 200 ppm
Procedure: as §1, §2

[8] = tested on: Myzus persicae (green peach aphid); experiment: Example B1: Myzus persicae, mixed population, feeding/residual contact activity, preventive; assay type: in vivo; conditions: foliar, 144 h, sprayed sunflower leaf discs, 6 days

Structure (SMILES)	mortality at 200 ppm ([1]; pepper [P] plants sprayed) [%]	damage to pepper plants (phytotoxicity) (pepper plants) [%]	mortality at 25 ppm [2] [%]	mortality at 400 ppm [3] [%]	mortality at 400 ppm [4] [%]	mortality at 400 ppm [5] [%]	mortality at 400 ppm [6] [%]	mortality at 400 ppm [7] [%]	mortality at 200 ppm ([1]; cabbage [C] plants sprayed) [%]	damage to cabbage plants (phytotoxicity) (cabbage plants) [%]	mortality at 400 ppm [8] [%]
CON1CCC2(CC1)C(O)=C(c1cc(C)ccc1C)C(=O)N2N(C)C [A5]	≥ 80	≤ 10									
CCOC(=O)OC1=C(c2c(C)cc(C)cc2C)C(=O)N(N(C)C)C12CCN(OC)CC2 [A2, Carbonic acid 1-dimethylamino-8-methoxy-2-oxo-3-(2,4,6-trimethyl-phenyl)-1,8-diaza-spiro[4.5]dec-3-en-4-yl ester ethyl ester]	≥ 80	≤ 10	> 80	> 80	> 80	> 80	> 80				
CON1CCC2(CC1)C(=O)C(c1c(C)cc(C)cc1C)C(=O)N2N(C)C (centres unmarked) [A1, 1-Dimethylamino-8-methoxy-3-(2,4,6-trimethyl-phenyl)-1,8-diaza-spiro[4.5]decane-2,4-dione]	≥ 80	≤ 10	> 80	> 80	> 80	> 80		> 80			
CCOC(=O)OC1=C(c2c(C)cc(C)cc2C)C(=O)N(N2CCOCC2)C12CCN(OC)CC2 [B2]							> 80		≥ 80	≤ 10	> 80
CON1CCC2(CC1)C(O)=C(c1c(C)cc(C)cc1C)C(=O)N2N1CCOCC1 [B1]						> 80	> 80		≥ 80	≤ 10	> 80
CON1CCC2(CC1)C(O)=C(c1c(C)cc(Cl)cc1C)C(=O)N2N1CCOCC1 [B3]						> 80	> 80		≥ 80	≤ 10	> 80
CCOC(=O)OC1=C(c2c(C)cc(Cl)cc2C)C(=O)N(N2CCOCC2)C12CCN(OC)CC2 [B4]						> 80	> 80		≥ 80	≤ 10	> 80
CCOC(=O)OC1=C(c2cc(C)ccc2C)C(=O)N(N2CCOCC2)C12CCN(OC)CC2 [B6]							> 80		≥ 80	≤ 10	
CON1CCC2(CC1)C(O)=C(c1c(C)cc(Cl)cc1C)C(=O)N2N(C)C [A3]						> 80					
CCOC(=O)OC1=C(c2c(C)cc(Cl)cc2C)C(=O)N(N(C)C)C12CCN(OC)CC2 [A4]	≥ 80	≤ 10				> 80	> 80				> 80
CON1CCC2(CC1)C(O)=C(c1cc(C)ccc1C)C(=O)N2N1CCOCC1 [B5]							> 80		≥ 80	≤ 10	
